Measurements published in ChEMBL document CHEMBL1154368, “Benzothiazoles as Rho-associated kinase (ROCK-II) inhibitors” (Bioorg Med Chem Lett, 2009).
Blank lines part the entries; values can stand above or below the molecule they belong to.

Columns and labels:
[1] = Inhibition of PKA
[2] = biological target: T1, Rho-associated protein kinase 2 (Homo sapiens, UniProt O75116); test: Inhibition of ROCK2
[3] = Selectivity for ROCK2 over PKA
[4] = biological target: T1, Rho-associated protein kinase 2
Description: Inhibition of ROCK2 assessed as myosin light chain phosphorylation by cell-based assay

[5] = Metabolic stability in human liver microsomes assessed as half life; format: ADME, Microsome
[6] = Metabolic stability in rat liver microsomes assessed as half life; format: ADME, Microsome
[7] = Oral bioavailability in rat; format: ADME, organism-based; settings: in vivo
[8] = Clearance in rat; format: ADME, organism-based; settings: in vivo
[9] = biological target: Rho-associated protein kinase 1 (Homo sapiens, UniProt Q13464); test: Inhibition of ROCK1
Sequence of Rho-associated protein kinase 1 (Q13464 whole entry): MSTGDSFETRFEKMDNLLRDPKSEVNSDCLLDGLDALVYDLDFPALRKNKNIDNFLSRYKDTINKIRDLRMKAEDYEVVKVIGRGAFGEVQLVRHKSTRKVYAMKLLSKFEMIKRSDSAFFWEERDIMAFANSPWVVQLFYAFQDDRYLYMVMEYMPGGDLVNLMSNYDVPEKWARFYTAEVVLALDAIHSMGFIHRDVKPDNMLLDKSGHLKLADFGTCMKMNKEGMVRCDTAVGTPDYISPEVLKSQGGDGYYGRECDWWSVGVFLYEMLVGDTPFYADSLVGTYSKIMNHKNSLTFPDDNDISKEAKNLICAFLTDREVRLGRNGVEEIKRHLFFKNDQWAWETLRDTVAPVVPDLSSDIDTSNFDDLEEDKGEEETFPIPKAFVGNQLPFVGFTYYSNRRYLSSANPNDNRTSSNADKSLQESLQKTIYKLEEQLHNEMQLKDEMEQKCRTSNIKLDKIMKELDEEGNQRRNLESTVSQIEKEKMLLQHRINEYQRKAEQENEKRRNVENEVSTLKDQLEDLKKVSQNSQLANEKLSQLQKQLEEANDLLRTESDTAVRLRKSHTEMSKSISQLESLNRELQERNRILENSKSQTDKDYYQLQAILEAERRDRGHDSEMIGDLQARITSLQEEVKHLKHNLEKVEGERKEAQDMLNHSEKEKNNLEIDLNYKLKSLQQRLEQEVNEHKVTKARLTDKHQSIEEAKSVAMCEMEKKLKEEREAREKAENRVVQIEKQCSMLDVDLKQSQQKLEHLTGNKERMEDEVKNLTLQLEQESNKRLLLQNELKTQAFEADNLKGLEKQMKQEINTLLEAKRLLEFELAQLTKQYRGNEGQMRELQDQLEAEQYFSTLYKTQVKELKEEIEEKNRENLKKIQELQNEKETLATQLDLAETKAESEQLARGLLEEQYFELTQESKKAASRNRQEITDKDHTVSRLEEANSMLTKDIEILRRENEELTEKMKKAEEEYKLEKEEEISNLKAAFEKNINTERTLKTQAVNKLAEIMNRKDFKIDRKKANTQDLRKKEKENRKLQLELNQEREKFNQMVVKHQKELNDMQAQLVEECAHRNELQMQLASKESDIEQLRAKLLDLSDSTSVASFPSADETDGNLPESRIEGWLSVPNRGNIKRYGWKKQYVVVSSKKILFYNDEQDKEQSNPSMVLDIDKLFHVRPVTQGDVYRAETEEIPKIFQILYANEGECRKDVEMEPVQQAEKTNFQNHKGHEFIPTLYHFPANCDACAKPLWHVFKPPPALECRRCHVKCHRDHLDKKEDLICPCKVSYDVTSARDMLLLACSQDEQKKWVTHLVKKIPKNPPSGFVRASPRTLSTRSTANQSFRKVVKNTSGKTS

[10] = biological target: Serine/threonine-protein kinase MRCK alpha (Homo sapiens, UniProt Q5VT25); test: Inhibition of MRCKalpha
Sequence of Serine/threonine-protein kinase MRCK alpha (Q5VT25 whole entry): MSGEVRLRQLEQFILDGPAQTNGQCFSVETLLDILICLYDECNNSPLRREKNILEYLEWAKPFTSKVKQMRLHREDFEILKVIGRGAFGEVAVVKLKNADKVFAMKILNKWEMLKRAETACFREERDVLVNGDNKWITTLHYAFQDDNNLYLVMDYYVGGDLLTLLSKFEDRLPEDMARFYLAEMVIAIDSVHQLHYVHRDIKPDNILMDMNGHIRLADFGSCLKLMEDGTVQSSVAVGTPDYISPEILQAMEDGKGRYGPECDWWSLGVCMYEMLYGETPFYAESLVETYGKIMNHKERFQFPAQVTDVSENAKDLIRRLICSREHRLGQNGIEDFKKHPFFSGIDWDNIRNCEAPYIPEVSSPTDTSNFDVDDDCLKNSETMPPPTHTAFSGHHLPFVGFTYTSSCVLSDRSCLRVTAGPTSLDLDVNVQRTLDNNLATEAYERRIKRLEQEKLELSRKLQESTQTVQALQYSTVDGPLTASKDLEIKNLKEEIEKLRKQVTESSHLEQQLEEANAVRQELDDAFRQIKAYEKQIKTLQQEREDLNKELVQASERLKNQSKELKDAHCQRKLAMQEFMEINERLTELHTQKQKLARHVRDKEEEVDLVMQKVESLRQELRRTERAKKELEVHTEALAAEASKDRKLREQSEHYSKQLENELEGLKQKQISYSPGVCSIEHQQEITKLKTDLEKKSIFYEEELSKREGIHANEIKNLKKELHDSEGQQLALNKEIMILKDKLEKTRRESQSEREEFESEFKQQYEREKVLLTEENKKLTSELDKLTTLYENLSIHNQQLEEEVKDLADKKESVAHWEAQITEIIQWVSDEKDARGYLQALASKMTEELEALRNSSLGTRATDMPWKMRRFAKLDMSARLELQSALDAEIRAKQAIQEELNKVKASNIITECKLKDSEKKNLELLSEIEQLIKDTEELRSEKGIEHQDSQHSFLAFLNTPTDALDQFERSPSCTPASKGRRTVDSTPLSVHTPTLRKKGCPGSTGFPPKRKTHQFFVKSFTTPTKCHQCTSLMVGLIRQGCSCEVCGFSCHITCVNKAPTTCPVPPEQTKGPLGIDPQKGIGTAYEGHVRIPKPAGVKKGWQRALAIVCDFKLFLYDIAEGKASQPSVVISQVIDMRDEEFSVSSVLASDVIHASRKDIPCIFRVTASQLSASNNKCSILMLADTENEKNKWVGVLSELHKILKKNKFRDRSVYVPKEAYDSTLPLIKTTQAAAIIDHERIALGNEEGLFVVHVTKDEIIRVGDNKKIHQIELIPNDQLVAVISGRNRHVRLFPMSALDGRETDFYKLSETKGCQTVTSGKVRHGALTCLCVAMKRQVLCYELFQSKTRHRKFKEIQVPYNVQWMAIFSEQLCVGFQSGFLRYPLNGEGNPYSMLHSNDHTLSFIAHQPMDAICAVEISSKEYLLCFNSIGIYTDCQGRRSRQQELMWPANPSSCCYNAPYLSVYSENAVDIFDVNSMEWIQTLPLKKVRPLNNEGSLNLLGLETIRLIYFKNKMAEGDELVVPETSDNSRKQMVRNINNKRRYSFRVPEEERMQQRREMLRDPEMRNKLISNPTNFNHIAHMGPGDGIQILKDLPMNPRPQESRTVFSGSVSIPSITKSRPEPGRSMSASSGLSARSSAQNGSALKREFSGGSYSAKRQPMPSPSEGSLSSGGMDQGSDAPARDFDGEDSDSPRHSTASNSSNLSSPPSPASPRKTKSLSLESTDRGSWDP

[11] = Inhibition of p38
[12] = biological target: Mitogen-activated protein kinase 10 (Homo sapiens, UniProt P53779); test: Inhibition of JNK3
Sequence of Mitogen-activated protein kinase 10 (P53779 whole entry): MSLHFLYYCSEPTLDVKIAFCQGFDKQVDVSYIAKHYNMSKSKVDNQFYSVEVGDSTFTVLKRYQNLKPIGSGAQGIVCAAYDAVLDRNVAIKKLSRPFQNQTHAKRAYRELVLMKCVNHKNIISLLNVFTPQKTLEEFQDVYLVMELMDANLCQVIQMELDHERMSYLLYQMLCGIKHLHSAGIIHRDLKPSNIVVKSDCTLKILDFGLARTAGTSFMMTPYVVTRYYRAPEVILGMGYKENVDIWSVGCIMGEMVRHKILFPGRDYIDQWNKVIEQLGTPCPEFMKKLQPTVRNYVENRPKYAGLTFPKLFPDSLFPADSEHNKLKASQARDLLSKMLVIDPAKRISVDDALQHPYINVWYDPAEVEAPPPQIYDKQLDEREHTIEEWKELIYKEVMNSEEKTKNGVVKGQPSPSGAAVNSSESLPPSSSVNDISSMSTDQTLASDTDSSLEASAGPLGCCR

T1 sequence (O75116 whole entry): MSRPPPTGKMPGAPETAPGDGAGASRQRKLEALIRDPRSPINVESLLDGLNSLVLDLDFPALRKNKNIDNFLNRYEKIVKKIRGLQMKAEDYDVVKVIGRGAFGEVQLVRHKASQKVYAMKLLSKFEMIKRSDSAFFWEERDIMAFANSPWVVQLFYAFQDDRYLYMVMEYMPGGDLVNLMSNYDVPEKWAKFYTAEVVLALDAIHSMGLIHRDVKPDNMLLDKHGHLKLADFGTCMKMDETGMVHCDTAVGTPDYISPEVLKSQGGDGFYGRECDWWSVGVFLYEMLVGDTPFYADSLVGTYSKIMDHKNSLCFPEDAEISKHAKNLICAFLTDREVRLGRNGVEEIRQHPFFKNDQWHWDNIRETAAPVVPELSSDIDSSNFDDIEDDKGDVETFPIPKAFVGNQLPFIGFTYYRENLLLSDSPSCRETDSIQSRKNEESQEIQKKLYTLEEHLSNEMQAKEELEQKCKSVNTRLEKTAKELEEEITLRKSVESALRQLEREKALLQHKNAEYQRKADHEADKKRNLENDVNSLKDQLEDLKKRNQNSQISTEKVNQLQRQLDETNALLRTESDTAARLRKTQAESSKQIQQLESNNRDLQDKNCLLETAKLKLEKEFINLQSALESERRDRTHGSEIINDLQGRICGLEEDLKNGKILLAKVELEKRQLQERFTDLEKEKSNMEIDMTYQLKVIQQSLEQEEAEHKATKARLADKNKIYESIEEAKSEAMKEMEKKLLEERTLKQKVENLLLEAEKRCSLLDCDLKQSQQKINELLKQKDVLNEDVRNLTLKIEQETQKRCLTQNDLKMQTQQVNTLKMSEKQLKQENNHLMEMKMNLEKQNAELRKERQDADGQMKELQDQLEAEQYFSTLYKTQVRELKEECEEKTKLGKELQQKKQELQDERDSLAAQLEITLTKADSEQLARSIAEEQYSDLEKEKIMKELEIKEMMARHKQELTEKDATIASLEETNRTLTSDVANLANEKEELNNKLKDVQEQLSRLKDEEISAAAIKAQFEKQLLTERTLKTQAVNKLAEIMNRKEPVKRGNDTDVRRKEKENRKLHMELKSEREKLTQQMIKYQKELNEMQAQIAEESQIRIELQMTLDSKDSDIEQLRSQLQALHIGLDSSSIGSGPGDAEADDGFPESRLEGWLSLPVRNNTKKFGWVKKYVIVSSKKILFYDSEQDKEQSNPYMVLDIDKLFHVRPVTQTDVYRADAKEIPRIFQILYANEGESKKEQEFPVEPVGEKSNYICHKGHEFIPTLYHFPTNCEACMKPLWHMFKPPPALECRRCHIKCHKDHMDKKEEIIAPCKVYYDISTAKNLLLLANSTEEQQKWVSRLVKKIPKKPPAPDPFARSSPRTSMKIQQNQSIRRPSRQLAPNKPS

Structure (SMILES): c1ccc2c(c1)CC(c1nc3c(OCCN4CCOCC4)cc(-c4cn[nH]c4)cc3s1)CO2 (centres undefined)
- IC50 [1]: > 5000 nM
- IC50 [2]: 314 nM

Structure (SMILES): c1ccc2c(c1)CC(c1nc3c(OCCC4CCOC4)cc(-c4cn[nH]c4)cc3s1)CO2 (centres undefined)
- IC50 [1]: > 5000 nM
- IC50 [2]: 500 nM

Structure (SMILES): CN(C)CCOc1cc(-c2cn[nH]c2)cc2sc(C3COc4ccccc4C3)nc12 (centres undefined)
- IC50 [1]: > 5000 nM
- Selectivity ratio [3]: > 75
- IC50 [4]: 365 nM
- IC50 [2]: 66 nM

Structure (SMILES): c1ccc2c(c1)CC(c1nc3ccc(-c4ccncc4)cc3s1)CO2 (centres undefined)
- IC50 [1]: 1100 nM
- Selectivity ratio [3]: 25
- IC50 [2]: 42 nM

Structure (SMILES): Cc1cc(-c2ccc3nc(C4COc5ccccc5C4)sc3c2)ccn1 (centres undefined)
- IC50 [1]: 7990 nM
- IC50 [2]: 1200 nM

Structure (SMILES): O=C(NCc1ccccc1)c1nc2ccc(-c3cn[nH]c3)cc2s1
- IC50 [1]: 4640 nM
- IC50 [2]: 53 nM

Structure (SMILES): Nc1nccc(-c2ccc3nc(C4COc5ccccc5C4)sc3c2)n1 (centres undefined)
- IC50 [1]: 156 nM
- half-life [5]: 47 min
- Selectivity ratio [3]: 17
- half-life [6]: 23 min
- IC50 [4]: 1500 nM
- IC50 [2]: 9 nM

Structure (SMILES): O=C(NCc1cccc(F)c1)c1nc2ccc(-c3cn[nH]c3)cc2s1
- IC50 [1]: 2680 nM
- IC50 [2]: 72 nM

Structure (SMILES): COc1cccc(CN(C(=O)c2nc3ccc(-c4cn[nH]c4)cc3s2)C2CC2)c1
- IC50 [1]: 19600 nM
- IC50 [2]: 94 nM

Structure (SMILES): COc1cccc(CN(CCN(C)C)C(=O)c2nc3ccc(-c4cn[nH]c4)cc3s2)c1
- bioavailability [7]: 0%
- IC50 [1]: 45 nM
- clearance [8]: 50 mL/min/kg
- half-life [5]: 15 min
- Selectivity ratio [3]: > 100
- IC50 [9]: 3.5 nM
- IC50 [10]: 247 nM
- IC50 [4]: < 6 nM
- IC50 [11]: > 20000 nM
- IC50 [12]: 13800 nM
- IC50 [2]: 0.4 nM

Structure (SMILES): CCN(Cc1cccc(OC)c1)C(=O)c1nc2ccc(-c3cn[nH]c3)cc2s1
- IC50 [1]: 16300 nM
- IC50 [9]: 180 nM
- IC50 [10]: 7860 nM
- IC50 [4]: 455 nM
- IC50 [11]: > 20000 nM
- IC50 [12]: > 20000 nM
- IC50 [2]: 26 nM

Structure (SMILES): CN(C)CCN(C)c1cc(-c2cn[nH]c2)cc2sc(C3COc4ccccc4C3)nc12 (centres undefined)
- IC50 [1]: 702 nM
- Selectivity ratio [3]: 12
- IC50 [4]: 365 nM
- IC50 [2]: 51 nM

Structure (SMILES): COc1cccc(CNC(=O)c2nc3ccc(-c4cn[nH]c4)cc3s2)c1
- IC50 [1]: 5290 nM
- Selectivity ratio [3]: 300
- IC50 [4]: > 2700 nM
- IC50 [2]: 18 nM

Structure (SMILES): COCCN(Cc1cccc(OC)c1)C(=O)c1nc2ccc(-c3cn[nH]c3)cc2s1
- IC50 [1]: > 20000 nM
- IC50 [4]: 871 nM
- IC50 [2]: 10 nM

Structure (SMILES): COc1cccc(CN(C)C(=O)c2nc3ccc(-c4cn[nH]c4)cc3s2)c1
- IC50 [1]: > 20000 nM
- IC50 [2]: 59 nM

Structure (SMILES): CN(C)CCCNC(=O)c1ccc2c(c1)CC(c1nc3ccc(-c4cn[nH]c4)cc3s1)CO2 (centres undefined)
- IC50 [1]: 765 nM
- half-life [5]: 34 min
- Selectivity ratio [3]: 847
- IC50 [9]: 2 nM
- IC50 [10]: 9550 nM
- IC50 [4]: < 4 nM
- IC50 [11]: > 20000 nM
- IC50 [12]: 5460 nM
- IC50 [2]: 0.9 nM

Second part, the molecule after the results:

- IC50 [1]: 644 nM
- Selectivity ratio [3]: 43
- IC50 [4]: > 2700 nM
- IC50 [2]: 14 nM
Structure (SMILES): Fc1cc(-c2cn[nH]c2)cc2sc(C3COc4ccccc4C3)nc12 (centres undefined)

- IC50 [1]: > 20000 nM
- IC50 [2]: 93 nM
Structure (SMILES): Cc1ccc2c(c1)CC(c1nc3ccc(-c4cn[nH]c4)cc3s1)CO2 (centres undefined)

- IC50 [1]: 1930 nM
- IC50 [4]: 1480 nM
- IC50 [2]: 38 nM
Structure (SMILES): Fc1ccc2c(c1)CC(c1nc3ccc(-c4cn[nH]c4)cc3s1)CO2 (centres undefined)

- IC50 [1]: 341 nM
- Selectivity ratio [3]: 30
- IC50 [4]: 1550 nM
- IC50 [2]: 11 nM
Structure (SMILES): c1ccc2c(c1)CC(c1nc3ccc(-c4cn[nH]c4)cc3s1)CO2 (centres undefined)

- IC50 [1]: 537 nM
- IC50 [4]: > 2700 nM
- IC50 [2]: 47 nM
Structure (SMILES): Fc1cc2nc(C3COc4ccccc4C3)sc2cc1-c1cn[nH]c1 (centres undefined)

- IC50 [1]: 404 nM
- IC50 [2]: 25 nM
Structure (SMILES): Cc1n[nH]cc1-c1ccc2nc(C3COc4ccccc4C3)sc2c1 (centres undefined)

- IC50 [1]: > 5000 nM
- IC50 [4]: 1480 nM
- IC50 [2]: 59 nM
Structure (SMILES): COC(=O)c1ccc2c(c1)CC(c1nc3ccc(-c4cn[nH]c4)cc3s1)CO2 (centres undefined)

- IC50 [1]: > 5000 nM
- IC50 [4]: 1240 nM
- IC50 [2]: 32 nM
Structure (SMILES): COc1cc(-c2cn[nH]c2)cc2sc(C3COc4ccccc4C3)nc12 (centres undefined)

- IC50 [1]: > 20000 nM
- IC50 [4]: > 2700 nM
- IC50 [2]: 45 nM
Structure (SMILES): COc1ccc2c(c1)CC(c1nc3ccc(-c4cn[nH]c4)cc3s1)CO2 (centres undefined)

- IC50 [1]: 1780 nM
- IC50 [2]: 75 nM
Structure (SMILES): Clc1ccc2c(c1)CC(c1nc3ccc(-c4cn[nH]c4)cc3s1)CO2 (centres undefined)

- IC50 [1]: 582 nM
- half-life [5]: 35 min
- Selectivity ratio [3]: 83
- IC50 [4]: 20 nM
- IC50 [2]: 7 nM
Structure (SMILES): CN(C)CCNC(=O)c1ccc2c(c1)CC(c1nc3ccc(-c4cn[nH]c4)cc3s1)CO2 (centres undefined)
